This assay addresses Zinc finger protein mex-5 (Caenorhabditis elegans) (UniProt Q9XUB2). The assay is described as follows: MEX-5 RNA-binding inhibition confirmation – biochemical, C. elegans, fluorescence polarization, dose retest (AID 449745).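 Further: potency is for blocking Mex-5 binding to labeled TCR2 RNA like unlabeled competitor.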 Particulars: Mex-5 / TCR-2 RNA binding. Background: In fluorescence polarisation assays a small probe gives low polarisation when free and higher when bound to something large.

Each structure is given as a SMILES string. Inconclusive results are not listed. The source made the active and inactive calls. How the calls were made is not given here. Where only a bound is given, the exact number is not on record here.

We go through 89 compounds from PubChem BioAssay AID449745 (Broad Institute, 2010).

Zinc finger protein mex-5 (Caenorhabditis elegans), sequence (Q9XUB2 whole entry, looked up): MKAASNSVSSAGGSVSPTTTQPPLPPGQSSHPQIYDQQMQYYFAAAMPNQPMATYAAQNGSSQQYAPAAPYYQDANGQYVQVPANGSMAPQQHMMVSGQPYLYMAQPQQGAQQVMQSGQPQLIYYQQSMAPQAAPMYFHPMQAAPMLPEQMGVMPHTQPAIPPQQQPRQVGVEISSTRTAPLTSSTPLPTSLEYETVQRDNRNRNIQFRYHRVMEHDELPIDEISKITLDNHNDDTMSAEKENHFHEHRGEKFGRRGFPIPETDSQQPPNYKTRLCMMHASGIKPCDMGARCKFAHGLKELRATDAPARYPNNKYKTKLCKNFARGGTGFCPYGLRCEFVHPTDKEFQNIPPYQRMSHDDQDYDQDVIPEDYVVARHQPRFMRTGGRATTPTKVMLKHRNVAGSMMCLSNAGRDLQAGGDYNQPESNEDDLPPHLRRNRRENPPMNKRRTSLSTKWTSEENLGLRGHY

With `Oc1ccc(N=Nc2n[nH]c(-c3ccccc3)n2)cc1`, the AC50 – broadly, the concentration giving half of the maximal activity seen – was 4.21 µM.

As to `CCc1ccc(N2C(=O)NC(=O)/C(=C/c3cccn3CCOc3ccc(C(C)CC)cc3)C2=O)cc1` (centres undefined), the AC50 is > 38 µM (inactive). Next, `CC1=Nc2cccc3cccc(c23)N1C`: > 38 µM (inactive); `Cc1ccnc(N2C(=O)c3cccc4c([N+](=O)[O-])ccc(c34)C2=O)c1`: 14.8 µM; `O=C(O)c1c2c(nc3ccccc13)/C(=C/c1ccc(O)cc1)CC2`: 36.4 µM. Next, `Cc1ccc([C@@H]2C3COCC=C3C(C#N)=C(N)C2(C#N)C#N)o1` (some centres undefined): > 38 µM (inactive).

On to `CC1(OC(=O)C2CCCC2)C(=O)C=C2C=C(c3ccc(C#N)cc3)OC=C2C1=O` (centres undefined), for which the AC50 was 9.38 µM.

As to `CCC(C)[C@H](NC(=O)C1CC(=O)N(c2ccc3c(c2)OCO3)C1)C(=O)NC1CCCCC1` (some centres undefined), the concentration at half-maximal activity (AC50) was 35.8 µM. As to `Cc1ccc(NC(=O)/C(C#N)=C(\N)C(Cl)(Cl)Cl)nc1`, the concentration at half-maximal activity (AC50) was 8.19 µM. As to `COC(=O)c1cc(O)c(O)c(O)c1`, the half-maximal activity concentration (AC50) is 25.4 µM. For `O=c1[nH]c(-[n+]2ccccc2)c(/C=N/NC([S-])=Nc2ccccc2)s1` the value was 15.1 µM; for `CCOC(=O)/C(C#N)=C/c1ccc(-c2ccsc2C(=O)OC)o1`, > 38 µM (inactive); for `CC(C)N1CCc2c(sc(NC(=O)c3ccc(S(=O)(=O)N4CCCCC4C)cc3)c2C(N)=O)C1` (centres undefined), > 38 µM (inactive).

In the case of `O=C(c1ccc(Cl)cc1)C1C2C(=O)N(c3ccccc3)C(=O)C2C2CCCN21` (centres undefined), the half-maximal activity concentration (AC50) was 19.8 µM.

Turning to `CCCCCCNC(=O)C(C#N)c1nc2ccccc2nc1N1CCOCC1` (centres undefined), the AC50 was 13.3 µM. Regarding `CC(=O)Nc1ccc(N2C(=O)c3cccc4c(O)ccc(c34)C2=O)cc1`, the AC50 was 3.81 µM.

As to `O=C(O)CCCCCN1C(=O)C(O)=C(C(=O)/C=C/c2ccccc2)C1c1ccccc1[N+](=O)[O-]` (centres undefined), the AC50 is > 38 µM (inactive).

Turning to `Cc1cc(/C=C2\SC(=S)N(Cc3ccco3)C2=O)c(C)n1-c1ccccc1`, the AC50 was 16.6 µM.

Turning to `CC(C)OC(=O)c1c2c(n3ccccc13)C(=O)c1ccccc1C2=O`, the AC50 was 19.1 µM. For `Nc1ccc2nc(CN3CCOCC3)[nH]c2c1` the value was 34.4 µM; for `N=c1c(C(=O)NCC2CCCO2)cc2c(=O)n3ccccc3nc2n1Cc1ccc(Cl)cc1` (centres undefined), > 38 µM (inactive); for `CC(C)CN1CCN(Cc2cccc3ncccc23)CC1CCO` (centres undefined), > 38 µM (inactive).

`Cc1ccc(O)c(C(=O)c2cc(C#N)c(=O)n(-c3nccs3)c2)c1`: the AC50 is 14.2 µM.

As for `CCOC(=O)C1CCN(c2nc(N)c3c(N)nc(SCC(=O)O)cc3c2C#N)CC1`, the AC50 is 20.1 µM. Regarding `CCOC(=O)c1cc(C#N)c(SCC(N)=O)[nH]c1=O`, the AC50 is > 38 µM (inactive). Take `CC(C)C1Nc2ccc(C(=O)O)cc2C2C=CCC21` (centres undefined): the AC50 was > 38 µM (inactive). Next, `N#C/C(=C\c1cn(-c2ccccc2)nc1-c1cc2ccccc2o1)c1nc2ccccc2[nH]1`: > 38 µM (inactive). In the case of `CCc1nnc(NC(=O)CCN2C(=O)/C(=C/c3cc(OC)c(OC)c(OC)c3)SC2=S)s1`, the AC50 is > 38 µM (inactive). Next, `COc1ccc(CN2C(=O)NC(=O)/C(=C\c3ccco3)C2=O)cc1`: 38.7 µM; `C[n+]1c2ccccc2nc2ccc(NCCO)cc21`: 30.6 µM; `Cn1c(O)c(/C=N/NC(=O)c2cc3ccccc3cc2O)c2ccccc21`: 5.01 µM. Regarding `Oc1[nH]c2ccccc2c1N=NC(=S)N1CCOCC1`, the half-maximal activity concentration (AC50) was 6.32 µM. Next, `N=c1c(S(=O)(=O)c2ccc(Cl)cc2)cc2c(=O)n3ccccc3nc2n1CC1CCCO1` (centres undefined): > 38 µM (inactive); `S=c1[nH]cnc2sc(Nc3ccccc3)nc12`: 27.4 µM; `CC1CC(=O)c2c(cc3c(-c4c(O)cc(O)c5c(O)c6c(cc45)OC(C)CC6=O)c(O)cc(O)c3c2O)O1` (centres undefined): 2.07 µM. With `COc1cc(N2CCCC2)c(OC)cc1/C=C(/C#N)c1cccc(Br)c1`, the AC50 is 10.3 µM. Next, `CC1(C)CC(=O)C2=C(C1)OC(N)=C(C#N)C2c1ccccc1[N+](=O)[O-]` (centres undefined): > 38 µM (inactive).

As to `Nc1nnc(CC(=O)N/N=C/c2cc([N+](=O)[O-])cc(Br)c2O)s1`, the concentration at half-maximal activity (AC50) is 2.69 µM. Next, `NC(=S)NNc1cccc2cccnc12`: 0.987 µM. On to `CC1(C)CC(=O)C2=C(C1)N=c1s/c(=C/c3ccc(F)c(F)c3)c(=O)n1C2c1ccc(F)cc1` (centres undefined), for which the AC50 is > 38 µM (inactive).

For `NC(=S)N/N=C/c1cccc(O)c1O`, the AC50 was 21.2 µM. Next, `Cc1ccc(C(=O)O)cc1N1C(=O)c2cccc3c([N+](=O)[O-])ccc(c23)C1=O`: 25.6 µM.

`CCOc1ccc(-c2c(C#N)c(N)nc3sc(C(=O)c4ccccc4)c(N)c23)cc1`: the concentration at half-maximal activity (AC50) was 35.5 µM. Next, `O=C1OC(/C(=C\Nc2cc(Cl)ccc2O)[N+](=O)[O-])c2ccccc21` (centres undefined): 12.4 µM; `O=C(/C=C/Nc1ccc(S(=O)(=O)Nc2cnc3ccccc3n2)cc1)c1ccccc1`: > 38 µM (inactive); `Cc1ccccc1C(=O)N=c1ccn(-c2nc3ccccc3nc2NS(=O)(=O)c2ccccc2)cc1`: > 38 µM (inactive). Next, `CN(C)c1ccc(/C=N/NC(=O)c2cnc3ccccc3c2)cc1`: 31.7 µM; `NS(=O)(=O)c1ccc(-c2ccc(C=C3C(=O)NC(=S)NC3=O)o2)cc1`: 8.11 µM.

As for `CCc1ccc[n+](-c2[nH]c(=O)sc2/C=N/NC([S-])=Nc2ccccc2)c1`, the AC50 was 4.63 µM.

Take `Cc1nc2ccc3nc(NC(=O)c4ccc5c(c4)OCCO5)sc3c2s1`: the AC50 was > 38 µM (inactive).

`O=C(O)c1ccccc1NS(=O)(=O)c1cccc(-n2sc3ccccc3c2=O)c1`: the AC50 is 7.89 µM. Next, `O=C(c1nc2ccc(Cl)cn2c1CN1CCC[C@H]1CO)N1CCCCCCC1`: 27.3 µM; `COc1ccc2c(c1)NP(=S)(Oc1ccccc1)N2` (centres undefined): 12.8 µM; `COc1ccc(N=C2S/C(=C\c3cc(C)n(C)c3C)C(=O)N2C)cc1`: > 38 µM (inactive).

Consider `Cc1cc(=O)[nH]c(SCc2nc3ccc([N+](=O)[O-])cc3[nH]2)n1`, for which the AC50 was 16.6 µM. For `O=C(NC(=S)NNS(=O)(=O)c1ccccc1)c1ccc([N+](=O)[O-])cc1` the value was 34.2 µM; for `CCOC(=O)C(=NC(C)C)NNc1cc(Cl)ccc1Cl`, > 38 µM (inactive). As for `COc1cc2c(cc1N/C=C(\C#N)c1nc(-c3ccc(F)cc3)cs1)oc1ccccc12`, the AC50 was > 38 µM (inactive).

For `Cc1c(N=NC2=C(O)CCCC2=O)c(=O)n(-c2ccccc2)n1C`, the AC50 is > 38 µM (inactive). For `O=C(CCN1C(=O)/C(=C/c2ccco2)SC1=S)Nc1ccc(C(=O)O)c(O)c1` the value was 30.6 µM.

As for `COc1cc([N+](=O)[O-])ccc1N/C=C/C(=O)c1cccs1`, the AC50 was > 38 µM (inactive). For `N#C/C(=C\c1cccc([N+](=O)[O-])c1)c1nnc2n1CCCCC2` the value was > 38 µM (inactive). For `CCN1C/C(=C/c2ccc(OC)c(O)c2)C(=O)/C(=C/c2ccc(OC)c(O)c2)C1` the value was > 38 µM (inactive).

As for `CCn1c(SCc2nc3sc(C(=O)O)c(C)c3c(=O)[nH]2)nc2ccccc21`, the AC50 was 13 µM. Next, `CSc1nc(N)c(N=Nc2ccc([As](=O)(O)O)cc2)c(=O)[nH]1`: 17.7 µM; `O=C(Cc1cccs1)Nc1nnc(SCc2ccc(Br)cc2)s1`: > 38 µM (inactive); `O=c1[nH]c(/C=C/c2cccc3ccccc23)nc2ccccc12`: > 38 µM (inactive). With `CC(C(=O)Nc1ccc(C(=O)O)c(O)c1)N1C(=O)/C(=C\c2ccco2)SC1=S` (centres undefined), the concentration at half-maximal activity (AC50) was 19 µM. Next, `COc1ccccc1OCC(=O)NNC(=O)c1cnccn1`: 35.3 µM; `O=C(O)c1ccc(NS(=O)(=O)c2ccc3c(c2)C(=O)c2ccccc2C3=O)cc1`: 28.4 µM. In the case of `COc1cccc(CN2C(=O)c3cccc(N)c3C2=O)c1`, the AC50 is 32 µM. For `Cc1ccc(C(=O)N/N=C\c2cc(Br)c(Br)o2)cn1` the value was 39.7 µM. For `O=C(O)c1cc(O)c2c(c1)[C@@H]([C@H]1c3cc(C(=O)O)cc(O)c3C(=O)c3c(O[C@@H]4O[C@H](CO)[C@@H](O)[C@H](O)[C@H]4O)cccc31)c1cccc(OC3O[C@H](CO)[C@@H](O)[C@H](O)[C@H]3O)c1C2=O` (some centres undefined) the value was 1.52 µM; for `Cn1c(=O)c2[nH]c(-c3ccccc3)c(O)c2n(C)c1=O`, 0.895 µM. Regarding `O=c1[nH]c(=O)n(Cc2ccccc2)c(O)c1/C=C1\C=Nc2ccccc21`, the AC50 was 29.8 µM.

As to `CN1/C(=C\C=C2C(=O)NC(=O)NC2=O)C(C)(C)c2ccccc21`, the AC50 is > 38 µM (inactive). Consider `Cc1nn(C)cc1C(=O)NNC(=S)Nc1ccccc1`, for which the half-maximal activity concentration (AC50) is 19.5 µM. For `CCNC(=S)N/N=C/c1sc(N2CCCCC2)nc1-c1cccs1` the value was 10 µM. Turning to `CCOC(=O)c1c(/N=C/c2ccc(OC)cc2O)sc2c1CCN(C)C2`, the AC50 was > 38 µM (inactive). Next, `Cc1nc2ccccc2n1/N=C/c1ccc([N+](=O)[O-])s1`: > 38 µM (inactive); `Cc1ccc(N=C2NC(=O)/C(=C\c3ccc(C)s3)S2)cc1`: > 38 µM (inactive); `O=C(Nc1nc2c(s1)CN(Cc1ccccc1)CC2)c1cccc(S(=O)(=O)N2CCc3ccccc32)c1`: > 38 µM (inactive). Regarding `Cc1cc(/C=C2\C(=O)NC(=O)N(Cc3ccccc3)C2=O)c(C)n1-c1ccc(Cl)c(C(=O)O)c1`, the AC50 was 33.2 µM. Next, `CCOc1cc(/C=C2\C(=O)N(c3cccc(C(=O)O)c3)N=C2C(F)(F)F)ccc1OCC(=O)Nc1ccccc1OC`: 8.68 µM; `O=C(O)/C=C/C(=O)NNc1ncnc2ccccc12`: 22.2 µM. For `CN1C(=O)C(=Cc2sc(=O)n(-c3ccccc3)c2N(C)C)C(=O)N(C)C1=O` the value was > 38 µM (inactive); for `O=C(O)c1ccc(Cl)c2c1C1C=CCC1C(c1ccccn1)N2` (centres undefined), 29 µM. Next, `CC1=NN2C(=N)/C(=C\c3ccc(SCc4ccccc4)o3)C(=O)N=C2S1`: 38 µM; `Cc1cc2c(n1-c1ccc(C(=O)O)cc1)CCCCC2`: 9.57 µM.
